Where “and” joins values, the source holds several entries; their conditions need not be identical. Equal entries are not always repeated.
What was measured:
[1] = tested on: neuronal firing in hamster SCN slices; assay: NMDA-induced phase advances of neuronal firing in hamster SCN slices maintained in vitro; assay type: cell-based; details: for Phase shift: mean ± S.E.M.; for reversal of the effect of NPY on NMDA-induced phase advances, % of the NMDA alone experiment: antagonist 10 μM with NMDA 100 μM + NPY 2 ng/ml, in vitro
Experimental: Brain slices containing the SCN were taken on a nominally “preparatory day”. During the subsequent night, at 3-3.5 hours before the scheduled onset of light, drugs were administered to the bath. Neuronal recordings were made beginning early the next day, nominally the “experimental day”, and continued until the peak firing rate could be established. A shift in this peak to an earlier point in time is referred to as a “phase advance”.
Phase advances were measured in vitro by sampling spontaneous activity from neurons in a brain slice preparation of the suprachiasmatic nucleus, herein abbreviated SCN, that is known to contain the circadian clock. The term “brain slice preparation”, as used herein, is defined as a cut section of brain that is placed in a plastic chamber and kept fully functioning by providing it with ACSF (artificial cerebrospinal fluid) that has been warmed and infused with oxygen. Recordings of the spontaneous activity of neurons in the SCN brain slice preparation follow a 24-hour pattern of activity that marks the circadian rhythm. Following application of N-methyl-D-aspartate (NMDA), a compound that mediates the phase advances elicited by light in vivo, neurons in the SCN shift their pattern of firing in vitro to reflect a phase advance. Application of NPY blocks the phase advances elicited by NMDA; NPY Y5 antagonists of formula Ia and IIa block these effects of NPY.
Animals and tissue preparation. Male golden hamsters (LVG, Charles River, 40-60 days old) were housed under a light:dark schedule of 14 hours of constant light and 10 hours of constant dark, with food and water available ad libitum. Hamsters were administered an overdose of halothane anesthesia and decapitated during the subjective day. Hypothalamic slices (500 μm) containing the suprachiasmatic nucleus (SCN) were placed in a gas-fluid interface slice chamber (Medical Systems BSC with Haas top), continuously bathed (1 ml/min) in artificial cerebrospinal fluid (ACSF) containing 125.2 mM NaCl, 3.8 mM KCl, 1.2 mM KH2PO4, 1.8 mM CaCl2, 1 mM MgSO4, 24.8 mM NaHCO3, 10 mM glucose. ACSF (pH 7.4) was supplemented with an antibiotic (gentamicin, 50 mg/l) and a fungicide (amphotericin, 2 mg/l) and maintained at 34.5° C. Warm, humidified 95% oxygen:5% carbon dioxide was continuously provided to the slice preparation.
Electrophysiological studies. Extracellular single unit activity of SCN cells was detected with glass micropipette electrodes filled with ACSF, advanced through the slice using a hydraulic microdrive. The signal was further amplified and filtered, and was continuously monitored by an oscilloscope and audio monitor. Firing rate was analyzed using data acquisition software and a customized program for calculation of descriptive statistics. The term “firing rate”, as used herein, is defined as the rate at which the neurons produce an action potential during the period of recording and is indicative of their level of functioning. Firing rates in the range of 1 to 10 Hz are typical for SCN neurons. A number of experiments in each condition were recorded “blind” where the person recording data had no knowledge of the treatment. One slice was recorded from each animal. A total number of 42 slices was recorded.
Data analysis. Data were initially grouped into 1 h bins and an analysis of variance test was used to determine if any bins differed from the others. If the analysis of variance test indicated significant differences, data were smoothed using 1 h running means with a 15-minute lag. The time of the middle of the 1 h bin with the highest mean firing rate after processing by this smoother was taken as the time of peak firing rate for that slice. Phase advances of individual slices were measured relative to the average time of peak firing of control slices. Significant differences between groups (p<0.05) were determined by ANOVA followed by Bonferroni method (for all vs control comparisons). Means are reported±standard error. […]

[2] = tested on: hamster wheel running activity; assay: Light-induced phase advances of hamster wheel running activity (in vivo); details: for Phase shift: mean ± S.E.M.
From the text: The in vivo experimental design included recording a behavioral overt rhythm such as running-wheel activity and exposing the animals to an amount of light that is known to produce a phase advance in this pattern of activity. The term “running-wheel activity”, as used herein, is defined as physical activity measured as revolutions of a wheel permanently positioned in the animals' cages and rotated as the animals run in them. The onset of such behavior is a well regarded marker of timing in circadian rhythms. Application of NPY through a cannula aimed directly into the SCN blocks the ability of light to produce a phase advance; NPY Y5 antagonists of formula IIa block these effects of NPY. Furthermore, when given in the absence of NPY, NPY Y5 antagonists of formula IIa enhance the ability of light to produce phase advances.
Surgery. For in vivo treatment, hamsters (80-100 g) were deeply anesthetized with nembutal (80 mg/kg, i.p.), administered an analgesic (buprenorphine, 0.05 mg/kg, s.c.) and mounted in a stereotaxic instrument in order to rigidly fix the skull. They were surgically implanted with a 25 gauge stainless steel guide cannula aimed at the SCN. After a week of recovery under LD 14:10 (14 hours of light, 10 hours of dark), animals were individually transferred to cages (48×27×20 cm) equipped with wheels. Wheel running activity was recorded with ClockLab hardware and software (Actimetrics, Evanston, Ill.).
Drugs and routes of administration. Animals were briefly anesthetized in order to minimize the stress induced by restraint during cannula injections with a mixture of oxygen and isoflurane administered by means of a gas anesthesia machine (2.5% isoflurane to induce anesthesia, 1.5% to maintain anesthesia through a nose-mask). NPY (0.2 μL, 234 μM) was dissolved in ACSF and administered through a cannula with a 1 μL Hamilton syringe connected with polyethylene tubing to a 13.1 mm stainless steel injector cannula (30 gauge). NPY Y5 receptor antagonist (0.6 ml, 10 mg/kg) was dissolved in 32% 2-hydroxypropyl-B-cyclodextrin, and injected s.c. 30 minutes before NPY and/or light stimulation. Light pulses (5 min, 150 lux) were delivered individually by placing animals under two white fluorescent tubes (Phillips, model F30T12); the timing of the light pulses was selected to be in the animals' dark period, 3.5 hours before lights would normally come on.
Animals were allowed at least 10 days under LD (14 hours of light, 10 hours of dark) in order to establish a stable rhythm, and then housed under constant dim red light (DRL) provided by a safelight lamp (Coastar, Inc. <1 lux). Two sets of experiments comprising five treatments were delivered in a counterbalanced design: NPY alone, NPY+light; light alone, light+NPY Y5 antagonist, NPY+NPY Y5 antagonist+light. After two treatments (only one of them involving light stimulation), animals were resynchronized to the previous LD cycle for 7-10 days, and then exposed again to dim red light for the second set of treatments.
Data analysis. For in vivo experiments, data were automatically collected and analyzed with Clocklab software bundle (ActiMetrics Software, Evanston, Ill.). Two investigators blind to the treatment analyzed phase advance magnitudes. Statistical analyses were performed by means of ANOVA followed by Student-Newman-Keul's test.
Phase advances (h) were calculated as the difference in the onset of running behavior in animals kept in dim red light relative to those exposed to combination of light and/or drug treatments. Means±S.E.M. for N=7-12. • a. Light alone experiment in which the animals are exposed to light 3 hours before the scheduled beginning of the animals' period of normal light. There is a resulting phase advance of 1.33 hours. • b. Formula IIa+light experiment in which the animals are pretreated with NPY Y5 antagonist of formula IIa and then exposed to light 3 hours before the scheduled beginning of the animals' period of normal light. […]

[3] = NMDA 100 μM + NPY 2 ng/ml + antagonist 10 μM, 60 minute bath application
[4] = substance alone, bath application 3.5 hours before scheduled light, NPY 2 ng/ml, NMDA 100 μM, antagonist 10 μM 60 min, N=2-6
[5] = Formula IIa 10 mg/kg s.c. + NPY via cannula + light
[6] = substance + light pulse, Formula IIa 10 mg/kg s.c. 30 minutes prior to light, NPY 0.2 μL via cannula
[7] = substance alone, no light, Formula IIa 10 mg/kg s.c., NPY 0.2 μL via cannula to SCN, N=7-12

Row | Molecule | Phase shift [1, 3] [h] | reversal of the effect of NPY on NMDA-induced phase advances, % of the NMDA alone experiment [1] | reversal of the effect of NPY on NMDA-induced phase advances, % of the NMDA alone experiment ([1]; listed as formula IIa) [%] | effect on the phase of neuronal firing compared to the control experiment ([1]; substance alone) | Phase shift [1, 4] | enhancement of the light-induced phase advance, % of the light alone experiment ([2]; Formula IIa 10 mg/kg s.c. 30 minutes prior to light, absence of NPY) [%] | reversal of the effects of NPY on light-induced phase advances, % of the light alone experiment [2, 5] | reversal of the effects of NPY on light-induced phase advances, % of the light alone experiment ([2]; Formula IIa 10 mg/kg s.c. + NPY via cannula + light, listed as formula IIa) [%] | Phase shift [2, 5] [h] | Phase shift ([2]; Formula IIa 10 mg/kg s.c. + NPY via cannula, no light) [h] | effect on the phase of wheel running activity ([2]; formula IIa 10 mg/kg s.c. + NPY, no light) | Phase shift [2, 6] [h] | effect on the phase of wheel running activity ([2]; substance alone, no light) | Phase shift [2, 7] [h] | reversal of the effect of NPY on NMDA-induced phase advances, % of the NMDA alone experiment ([1]; listed as formula Ia) [%] | blockade of the NMDA-induced phase advance by NPY ([1]; NMDA 100 μM + NPY 2 ng/ml) | Phase shift ([1]; NMDA 100 μM + NPY 2 ng/ml) [h] | blockade of the phase advance compared to the light alone experiment ([2]; NPY via cannula + light)
1 | O=C1OC2(CCN(c3nc4cc(C(F)(F)F)ccc4[nH]3)CC2)c2ccccc21 [Formula IIa] | 2.73 ± 0.16 | about 95% | 95 | no effect | 0.07 ± 0.07 h | 160 | about 90% | 89 | 1.18 ± 0.27 | -0.20 ± 0.07 | no effect | 2.11 ± 0.16 | no effect | -0.12 ± 0.04 | – | – | – | –
2 | O=C1OC2(CCN(C(=O)Nc3ccc(C(F)(F)F)cn3)CC2)c2ccccc21 [Formula Ia] | 2.03 ± 0.88 | about 70% | – | no effect | 0.32 ± 0.35 h | – | – | – | – | – | – | – | – | – | 70 | – | – | –
3 | Neuropeptide Y [NPY, reference compound] | – | – | – | no effect | -0.18 ± 0.17 h | – | – | – | – | – | – | -0.03 ± 0.20 | no effect | -0.04 ± 0.11 | – | complete blockade | -0.07 ± 0.09 | complete blockade
4 | CN[C@H](CC(=O)O)C(=O)O [NMDA, N-methyl-D-aspartate, reference compound] | – | – | – | – | 2.89 h and 2.89 ± 0.08 h | – | – | – | – | – | – | – | – | – | – | – | – | –

— patent publication US20050119283A1, “Treatment of circadian rhythm disorders with NPY Y5 receptor antagonist” (Pfizer Inc, priority 2003, published 2005)
